{"source": "patent US10875874B2", "about": "“Ginkgolide B derivative and preparation method and use thereof” (Chengdu Baiyu Ginkgolide Pharmaceuticals Co., Ltd., priority 2015, dated 2020)", "key": {"[1]": {"system": "spontaneously hypertensive rats (SHR)", "test": "Caudal artery systolic pressure of spontaneously hypertensive rats, single administration", "assay_type": "in vivo, rat", "details": "x ± s, n = 8", "method_in_brief": "(§1)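 SHR rats of both sexes (200–250 g, 8/group) dosed intragastrically with 60 or 120 mg/kg/d, or captopril 27 mg/kg, once daily for 8 weeks; Wistar rats and vehicle SHR served as controls. Tail-cuff systolic pressure taken as the mean of 3 readings, measured before dosing and 30–120 min after the first dose, or 30 min post-dose on days 1–56 for chronic treatment.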"}, "[2]": {"test": "Weekly food intake of SHR rats", "assay_type": "in vivo, rat", "method_in_brief": "(§2)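 Male and female SHR rats (200-250 g, 8/group) dosed intragastrically once daily for 8 weeks with test compounds at 60 or 120 mg/kg/d or captopril 27 mg/kg; Wistar and SHR controls received distilled water. Body weight and food intake observed during treatment.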"}, "[3]": {"system": "spontaneously hypertensive rats (SHR)", "test": "Caudal artery systolic pressure of spontaneously hypertensive rats, 8 weeks of continuous medication", "assay_type": "in vivo, rat", "details": "x ± s, n = 8", "method_in_brief": "as §1"}, "[4]": {"test": "Weekly body weight of SHR rats", "assay_type": "in vivo, rat", "method_in_brief": "as §2"}, "Water solubility test": {"test": "Water solubility test", "details": "purified water, thermodynamic from solid", "procedure": "Measuring method: samples are ground to obtain fine powder, target compounds are quantitatively weighed, the weighed compounds are added into purified water, and the solubility of the compounds is investigated by ultrasonics."}, "[5]": {"details": "60 mg/kg/d intragastric, week 0"}, "[6]": {"details": "60 mg/kg/d intragastric, week 1"}, "[7]": {"details": "60 mg/kg/d intragastric, week 2"}, "[8]": {"details": "60 mg/kg/d intragastric, week 3"}, "[9]": {"details": "60 mg/kg/d intragastric, week 4"}, "[10]": {"details": "60 mg/kg/d intragastric, week 5"}, "[11]": {"details": "60 mg/kg/d intragastric, week 6"}, "[12]": {"details": "60 mg/kg/d intragastric, week 7"}, "[13]": {"details": "60 mg/kg/d intragastric, week 8"}, "[14]": {"details": "120 mg/kg/d intragastric, week 0"}, "[15]": {"details": "120 mg/kg/d intragastric, week 1"}, "[16]": {"details": "120 mg/kg/d intragastric, week 2"}, "[17]": {"details": "120 mg/kg/d intragastric, week 3"}, "[18]": {"details": "120 mg/kg/d intragastric, week 4"}, "[19]": {"details": "120 mg/kg/d intragastric, week 5"}, "[20]": {"details": "120 mg/kg/d intragastric, week 6"}, "[21]": {"details": "120 mg/kg/d intragastric, week 7"}, "[22]": {"details": "120 mg/kg/d intragastric, week 8"}}, "note": "Marks after values point to notes of the source that are not given here.", "data": [{"compound": "CCCCC(OC(C)=O)c1ccccc1C(=O)O[C@H]1C(=O)O[C@H]2O[C@]34C(=O)OC5C[C@@H](C(C)(C)C)C21[C@@]53[C@@H](O)[C@@H]1OC(=O)[C@@H](C)[C@@]14O", "note": "(some centres unmarked) [BD]", "values": [{"measurement": "Systolic pressure", "setting": "[1]; 60 mg/kg intragastric single administration, 30 min", "result": "157.74 ± 9.28", "unit": "mmHg"}, {"measurement": "Systolic pressure", "setting": "[1]; 60 mg/kg intragastric single administration, 60 min", "result": "152.67 ± 13.52", "unit": "mmHg"}, {"measurement": "Systolic pressure", "setting": "[1]; 60 mg/kg intragastric single administration, 90 min", "result": "151.60 ± 12.04", "unit": "mmHg"}, {"measurement": "Systolic pressure", "setting": "[1]; 60 mg/kg intragastric single administration, 120 min", "result": "155.68 ± 10.15", "unit": "mmHg"}, {"measurement": "Systolic pressure", "setting": "[1]; 60 mg/kg intragastric single administration, before administration", "result": "163.64 ± 14.02", "unit": "mmHg"}, {"measurement": "Systolic pressure", "setting": "[1]; 120 mg/kg intragastric single administration, 30 min", "result": "148.47 ± 10.87", "unit": "mmHg"}, {"measurement": "Systolic pressure", "setting": "[1]; 120 mg/kg intragastric single administration, 60 min", "result": "151.75 ± 10.68", "unit": "mmHg"}, {"measurement": "Systolic pressure", "setting": "[1]; 120 mg/kg intragastric single administration, 90 min", "result": "157.25 ± 14.38", "unit": "mmHg"}, {"measurement": "Systolic pressure", "setting": "[1]; 120 mg/kg intragastric single administration, 120 min", "result": "160.49 ± 14.76", "unit": "mmHg"}, {"measurement": "Systolic pressure", "setting": "[1]; 120 mg/kg intragastric single administration, before administration", "result": "164.57 ± 13.25", "unit": "mmHg"}, {"measurement": "Average dairy food intake", "setting": "[2]; [5]", "result": 18.7, "unit": "g/day"}, {"measurement": "Average dairy food intake", "setting": "[2]; [6]", "result": "19.0^▴ g/d"}, {"measurement": "Average dairy food intake", "setting": "[2]; [7]", "result": "19.4^▴ g/d"}, {"measurement": "Average dairy food intake", "setting": "[2]; [8]", "result": "19.8^▴ g/d"}, {"measurement": "Average dairy food intake", "setting": "[2]; [9]", "result": "20.0^▴▴ g/d"}, {"measurement": "Average dairy food intake", "setting": "[2]; [10]", "result": "21.3^▴▴ g/d"}, {"measurement": "Average dairy food intake", "setting": "[2]; [11]", "result": "22.6^▴▴ g/d"}, {"measurement": "Average dairy food intake", "setting": "[2]; [12]", "result": "24.3^▴▴ g/d"}, {"measurement": "Average dairy food intake", "setting": "[2]; [13]", "result": "25.0^▴▴ g/d"}, {"measurement": "Average dairy food intake", "setting": "[2]; [14]", "result": 18.3, "unit": "g/day"}, {"measurement": "Average dairy food intake", "setting": "[2]; [15]", "result": "20.1^▴ g/d"}, {"measurement": "Average dairy food intake", "setting": "[2]; [16]", "result": "20.6^▴▴ g/d"}, {"measurement": "Average dairy food intake", "setting": "[2]; [17]", "result": "21.0^▴▴ g/d"}, {"measurement": "Average dairy food intake", "setting": "[2]; [18]", "result": "21.5^▴▴ g/d"}, {"measurement": "Average dairy food intake", "setting": "[2]; [19]", "result": "22.8^▴▴ g/d"}, {"measurement": "Average dairy food intake", "setting": "[2]; [20]", "result": "23.9^▴▴ g/d"}, {"measurement": "Average dairy food intake", "setting": "[2]; [21]", "result": "25.4^▴▴ g/d"}, {"measurement": "Average dairy food intake", "setting": "[2]; [22]", "result": "26.9^▴▴ g/d"}, {"measurement": "Systolic pressure", "setting": "[3]; 60 mg/kg/d intragastric continuous, 1 d, 30 min after administration", "result": "156.20 ± 13.41", "unit": "mmHg"}, {"measurement": "Systolic pressure", "setting": "[3]; 60 mg/kg/d intragastric continuous, 7 d, 30 min after administration", "result": "152.95 ± 11.03", "unit": "mmHg"}, {"measurement": "Systolic pressure", "setting": "[3]; 60 mg/kg/d intragastric continuous, 13 d, 30 min after administration", "result": "155.74 ± 15.25", "unit": "mmHg"}, {"measurement": "Systolic pressure", "setting": "[3]; 60 mg/kg/d intragastric continuous, 19 d, 30 min after administration", "result": "153.01 ± 14.04", "unit": "mmHg"}, {"measurement": "Systolic pressure", "setting": "[3]; 60 mg/kg/d intragastric continuous, 25 d, 30 min after administration", "result": "152.30 ± 10.45", "unit": "mmHg"}, {"measurement": "Systolic pressure", "setting": "[3]; 60 mg/kg/d intragastric continuous, 35 d, 30 min after administration", "result": "157.03 ± 14.08", "unit": "mmHg"}, {"measurement": "Systolic pressure", "setting": "[3]; 60 mg/kg/d intragastric continuous, 49 d, 30 min after administration", "result": "153.96 ± 14.74", "unit": "mmHg"}, {"measurement": "Systolic pressure", "setting": "[3]; 60 mg/kg/d intragastric continuous, 56 d, 30 min after administration", "result": "154.57 ± 12.48", "unit": "mmHg"}, {"measurement": "Systolic pressure", "setting": "[3]; 60 mg/kg/d intragastric continuous, before administration", "result": "163.64 ± 14.02", "unit": "mmHg"}, {"measurement": "Systolic pressure", "setting": "[3]; 120 mg/kg/d intragastric continuous, 1 d, 30 min after administration", "result": "150.49 ± 15.34", "unit": "mmHg"}, {"measurement": "Systolic pressure", "setting": "[3]; 120 mg/kg/d intragastric continuous, 7 d, 30 min after administration", "result": "152.64 ± 11.45", "unit": "mmHg"}, {"measurement": "Systolic pressure", "setting": "[3]; 120 mg/kg/d intragastric continuous, 13 d, 30 min after administration", "result": "147.33 ± 13.42", "unit": "mmHg"}, {"measurement": "Systolic pressure", "setting": "[3]; 120 mg/kg/d intragastric continuous, 19 d, 30 min after administration", "result": "145.49 ± 12.98", "unit": "mmHg"}, {"measurement": "Systolic pressure", "setting": "[3]; 120 mg/kg/d intragastric continuous, 25 d, 30 min after administration", "result": "147.66 ± 14.02", "unit": "mmHg"}, {"measurement": "Systolic pressure", "setting": "[3]; 120 mg/kg/d intragastric continuous, 35 d, 30 min after administration", "result": "145.61 ± 9.47", "unit": "mmHg"}, {"measurement": "Systolic pressure", "setting": "[3]; 120 mg/kg/d intragastric continuous, 49 d, 30 min after administration", "result": "148.62 ± 12.04", "unit": "mmHg"}, {"measurement": "Systolic pressure", "setting": "[3]; 120 mg/kg/d intragastric continuous, 56 d, 30 min after administration", "result": "142.15 ± 13.14", "unit": "mmHg"}, {"measurement": "Systolic pressure", "setting": "[3]; 120 mg/kg/d intragastric continuous, before administration", "result": "164.57 ± 13.25", "unit": "mmHg"}, {"measurement": "Body weight", "setting": "[4]; [5]", "result": 229.2, "unit": "g"}, {"measurement": "Body weight", "setting": "[4]; [6]", "result": 234.5, "unit": "g"}, {"measurement": "Body weight", "setting": "[4]; [7]", "result": "247.1^▴▴ g"}, {"measurement": "Body weight", "setting": "[4]; [8]", "result": 252.2, "unit": "g"}, {"measurement": "Body weight", "setting": "[4]; [9]", "result": 257.2, "unit": "g"}, {"measurement": "Body weight", "setting": "[4]; [10]", "result": 262.4, "unit": "g"}, {"measurement": "Body weight", "setting": "[4]; [11]", "result": "270.4^▴ g"}, {"measurement": "Body weight", "setting": "[4]; [12]", "result": "280.2^▴▴ g"}, {"measurement": "Body weight", "setting": "[4]; [13]", "result": "290.5^▴▴ g"}, {"measurement": "Body weight", "setting": "[4]; [14]", "result": 230.9, "unit": "g"}, {"measurement": "Body weight", "setting": "[4]; [15]", "result": "252.0^▴▴ g"}, {"measurement": "Body weight", "setting": "[4]; [16]", "result": "257.5^▴▴ g"}, {"measurement": "Body weight", "setting": "[4]; [17]", "result": "263.9^▴▴ g"}, {"measurement": "Body weight", "setting": "[4]; [18]", "result": "270.8^▴▴ g"}, {"measurement": "Body weight", "setting": "[4]; [19]", "result": "281.2^▴▴ g"}, {"measurement": "Body weight", "setting": "[4]; [20]", "result": "291.0^▴▴ g"}, {"measurement": "Body weight", "setting": "[4]; [21]", "result": "304.7^▴▴ g"}, {"measurement": "Body weight", "setting": "[4]; [22]", "result": "321.7^▴▴ g"}, {"measurement": "solubility", "setting": "Water solubility test", "result": 250, "unit": "µg/mL"}]}]}
